# Results as given in PubChem BioAssay (NCI).
#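 Each compound was tested at five concentrations against cells in 96-well plates for 48 hours. GI50 = concentration required for 50% inhibition of growth. TGI: total growth inhibition.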
# Legend:
# Experiment in all cases: DTP human tumour cell line panel, 48 h
# HCT-116 colon = test system: HCT-116 colon
# SK-MEL-2 melanoma = test system: SK-MEL-2 melanoma
# T-47D breast = test system: T-47D breast
# HL-60(TB) leukemia = test system: HL-60(TB) leukemia
# SF-268 CNS = test system: SF-268 CNS
# SF-539 CNS = test system: SF-539 CNS
# NCI-H460 lung = test system: NCI-H460 lung
# RPMI-8226 leukemia = test system: RPMI-8226 leukemia
# HOP-92 NSCLC = test system: HOP-92 NSCLC
# MDA-MB-231 breast = test system: MDA-MB-231 breast
# NCI/ADR-RES ovarian = test system: NCI/ADR-RES ovarian
# SK-MEL-5 melanoma = test system: SK-MEL-5 melanoma
# BT-549 breast = test system: BT-549 breast
# HT29 colon = test system: HT29 colon
# TK-10 renal = test system: TK-10 renal
# SNB-75 CNS = test system: SNB-75 CNS
# 786-0 renal = test system: 786-0 renal
# IGROV1 ovarian = test system: IGROV1 ovarian
# NCI-H226 lung = test system: NCI-H226 lung
# SR leukemia = test system: SR leukemia
# CAKI-1 renal = test system: CAKI-1 renal
# HCT-15 colon = test system: HCT-15 colon
# OVCAR-3 ovarian = test system: OVCAR-3 ovarian
# MOLT-4 leukemia = test system: MOLT-4 leukemia
# COLO 205 colon = test system: COLO 205 colon
# NCI-H23 lung = test system: NCI-H23 lung
# HOP-62 NSCLC = test system: HOP-62 NSCLC
# PC-3 prostate = test system: PC-3 prostate
# UACC-257 melanoma = test system: UACC-257 melanoma
# K-562 leukemia = test system: K-562 leukemia
# NCI-H522 lung = test system: NCI-H522 lung
# LOX IMVI melanoma = test system: LOX IMVI melanoma
# HCC-2998 colon = test system: HCC-2998 colon
# DU-145 prostate = test system: DU-145 prostate
# SK-OV-3 ovarian = test system: SK-OV-3 ovarian
# ACHN renal = test system: ACHN renal
# RXF 393 renal = test system: RXF 393 renal
# UO-31 renal = test system: UO-31 renal
# OVCAR-8 ovarian = test system: OVCAR-8 ovarian
# OVCAR-5 ovarian = test system: OVCAR-5 ovarian
# HS 578T breast = test system: HS 578T breast
# SN12C renal = test system: SN12C renal
# A549 NSCLC = test system: A549 NSCLC
# SW-620 colon = test system: SW-620 colon
# SK-MEL-28 melanoma = test system: SK-MEL-28 melanoma
# U251 CNS = test system: U251 CNS
# MALME-3M melanoma = test system: MALME-3M melanoma
# KM12 colon = test system: KM12 colon
# SNB-19 CNS = test system: SNB-19 CNS
# OVCAR-4 ovarian = test system: OVCAR-4 ovarian
# MCF7 breast = test system: MCF7 breast
# MDA-MB-435 = test system: MDA-MB-435
# SF-295 CNS = test system: SF-295 CNS
# UACC-62 melanoma = test system: UACC-62 melanoma
# CCRF-CEM leukemia = test system: CCRF-CEM leukemia
structure (smiles),measurement,setting,value
Cc1cc(NC(=O)C2c3ccccc3C(=O)N(CC(C)C)C2c2cccs2)no1 (stereo not given),GI50,HCT-116 colon,49.1 µM
same,TGI,HCT-116 colon,> 100 µM
same,GI50,SK-MEL-2 melanoma,> 100 µM
same,TGI,SK-MEL-2 melanoma,> 100 µM
same,GI50,T-47D breast,> 100 µM
same,TGI,T-47D breast,> 100 µM
same,GI50,HL-60(TB) leukemia,39 µM
same,TGI,HL-60(TB) leukemia,> 100 µM
same,GI50,SF-268 CNS,> 100 µM
same,TGI,SF-268 CNS,> 100 µM
same,GI50,SF-539 CNS,> 100 µM
same,TGI,SF-539 CNS,> 100 µM
same,GI50,NCI-H460 lung,> 100 µM
same,TGI,NCI-H460 lung,> 100 µM
same,GI50,RPMI-8226 leukemia,45.5 µM
same,TGI,RPMI-8226 leukemia,> 100 µM
same,GI50,HOP-92 NSCLC,18.7 µM
same,TGI,HOP-92 NSCLC,78.2 µM
same,GI50,MDA-MB-231 breast,21.2 µM
same,TGI,MDA-MB-231 breast,93.4 µM
same,GI50,NCI/ADR-RES ovarian,90.2 µM
same,TGI,NCI/ADR-RES ovarian,> 100 µM
same,GI50,SK-MEL-5 melanoma,73.2 µM
same,TGI,SK-MEL-5 melanoma,> 100 µM
same,GI50,BT-549 breast,> 100 µM
same,TGI,BT-549 breast,> 100 µM
same,GI50,HT29 colon,69.5 µM
same,TGI,HT29 colon,> 100 µM
same,GI50,TK-10 renal,> 100 µM
same,TGI,TK-10 renal,> 100 µM
same,GI50,SNB-75 CNS,10.5 µM
same,TGI,SNB-75 CNS,> 100 µM
same,GI50,786-0 renal,> 100 µM
same,TGI,786-0 renal,> 100 µM
same,GI50,IGROV1 ovarian,> 100 µM
same,TGI,IGROV1 ovarian,> 100 µM
same,GI50,NCI-H226 lung,> 100 µM
same,TGI,NCI-H226 lung,> 100 µM
same,GI50,SR leukemia,35.5 µM
same,TGI,SR leukemia,> 100 µM
same,GI50,CAKI-1 renal,25.6 µM
same,TGI,CAKI-1 renal,> 100 µM
same,GI50,HCT-15 colon,70.6 µM
same,TGI,HCT-15 colon,> 100 µM
same,GI50,OVCAR-3 ovarian,90.1 µM
same,TGI,OVCAR-3 ovarian,> 100 µM
same,GI50,MOLT-4 leukemia,43.1 µM
same,TGI,MOLT-4 leukemia,> 100 µM
same,GI50,COLO 205 colon,> 100 µM
same,TGI,COLO 205 colon,> 100 µM
same,GI50,NCI-H23 lung,> 100 µM
same,TGI,NCI-H23 lung,> 100 µM
same,GI50,HOP-62 NSCLC,> 100 µM
same,TGI,HOP-62 NSCLC,> 100 µM
same,GI50,PC-3 prostate,34.8 µM
same,TGI,PC-3 prostate,> 100 µM
same,GI50,UACC-257 melanoma,> 100 µM
same,TGI,UACC-257 melanoma,> 100 µM
same,GI50,K-562 leukemia,50.9 µM
same,TGI,K-562 leukemia,> 100 µM
same,GI50,NCI-H522 lung,52.2 µM
same,TGI,NCI-H522 lung,> 100 µM
same,GI50,LOX IMVI melanoma,> 100 µM
same,TGI,LOX IMVI melanoma,> 100 µM
same,GI50,HCC-2998 colon,> 100 µM
same,TGI,HCC-2998 colon,> 100 µM
same,GI50,DU-145 prostate,> 100 µM
same,TGI,DU-145 prostate,> 100 µM
same,GI50,SK-OV-3 ovarian,> 100 µM
same,TGI,SK-OV-3 ovarian,> 100 µM
same,GI50,ACHN renal,55.2 µM
same,TGI,ACHN renal,> 100 µM
same,GI50,RXF 393 renal,27.5 µM
same,TGI,RXF 393 renal,> 100 µM
same,GI50,UO-31 renal,30.2 µM
same,TGI,UO-31 renal,> 100 µM
same,GI50,OVCAR-8 ovarian,> 100 µM
same,TGI,OVCAR-8 ovarian,> 100 µM
same,GI50,OVCAR-5 ovarian,> 100 µM
same,TGI,OVCAR-5 ovarian,> 100 µM
same,GI50,HS 578T breast,86.7 µM
same,TGI,HS 578T breast,> 100 µM
same,GI50,SN12C renal,> 100 µM
same,TGI,SN12C renal,> 100 µM
same,GI50,A549 NSCLC,> 100 µM
same,TGI,A549 NSCLC,> 100 µM
same,GI50,SW-620 colon,> 100 µM
same,TGI,SW-620 colon,> 100 µM
same,GI50,SK-MEL-28 melanoma,> 100 µM
same,TGI,SK-MEL-28 melanoma,> 100 µM
same,GI50,U251 CNS,84.2 µM
same,TGI,U251 CNS,> 100 µM
same,GI50,MALME-3M melanoma,> 100 µM
same,TGI,MALME-3M melanoma,> 100 µM
same,GI50,KM12 colon,48.4 µM
same,TGI,KM12 colon,> 100 µM
same,GI50,SNB-19 CNS,46.2 µM
same,TGI,SNB-19 CNS,> 100 µM
same,GI50,OVCAR-4 ovarian,31.3 µM
same,TGI,OVCAR-4 ovarian,> 100 µM
same,GI50,MCF7 breast,60 µM
same,TGI,MCF7 breast,> 100 µM
same,GI50,MDA-MB-435,33.7 µM
same,TGI,MDA-MB-435,> 100 µM
same,GI50,SF-295 CNS,29 µM
same,TGI,SF-295 CNS,> 100 µM
same,GI50,UACC-62 melanoma,86 µM
same,TGI,UACC-62 melanoma,> 100 µM
same,GI50,CCRF-CEM leukemia,82.5 µM
same,TGI,CCRF-CEM leukemia,> 100 µM
